Columns and labels:
[1] = Solubility in DMSO, PBS buffer and cell culture media; assay type: physicochemical
Procedure: All Conjugated fused polycyclic compounds tested (including Formulas II(a)(1), II(b)(1) and II(c)(1), and II(bk)) are highly soluble in DMSO, but poorly soluble in PBS buffer and cell culture medium. Formulas II(b)(1) and II(c)(1) can remain soluble in PBS buffer or cell culture medium if its concentration is less 0.2 mM. At concentrations higher than 0.2 mM, the solution begins to cloud and become emulsion like. This emulsion is able to remain stable for as long as 8 hours. Formula II(bk) is less soluble in PBS buffer and cell culture medium. It was only observed to dissolve in PBS at concentrations of 0.1 mM or less. Similar to Formulas II(b)(1) and II(c)(1), increasing Formula II(bk) concentration above 0.1 mM results in a cloudy emulsion like solution. But this cloudy solution is fairly stable and can be kept for more than 3 days.

[2] = Singlet oxygen phosphorescence from protoporphyrin IX dimethyl ester in air saturated CDCl3, 532 nm; assay type: physicochemical; conditions: MePPIX 25 μM
Procedure: Singlet oxygen phosphorescence experiments were performed to investigate if the large differences in triplet quenching rate constants have an impact on the observed singlet oxygen yields. The dimethyl ester derivative of PPIX (MePPIX, Formula IV(c)) was selected as sensitizer, because of better solubility in a solvent with long singlet oxygen lifetime (CDCl3).
The excited state properties of protoporphyrin IX should not be effected by the methyl ester functionality. Air saturated CDCl3 of MePPIX were excited with a pulsed Nd-YAG laser with visible light at 532 nm, where the stabilizers are mostly transparent. […] The lack of singlet oxygen suppression is consistent with the lack of observable quenching of singlet or triplet excited states of PPIX by alkoxy crylene.

HaCat cells [3] = experiment: Cell viability of ALA-treated HaCat cells after red light irradiation; assay type: cell-based, human; conditions: 1 mM
Procedure: HaCat cells were seeded in 96-well plates and grown to confluence. Confluent cells were treated with 8 mM ALA for 2 hours. Cells then received 1 mM of Formula II(a)(1), II(b)(1)+II(c)(1), or II(bk). Following a one-hour incubation, cells were irradiated for 3 minutes and immediately washed with naïve cell culture media once. Additional cell culture media was added and the cells were cultured for 24 hours. A cell viabilty agent was added to each well and incubated for 2 hours. Cell viability was analyzed at the conclusion of this incubation by measuring the fluorescence intensity (excitation/emission 560/590) of each well. Results shown in FIG. 26 indicate that control cells (without conjugated fused polycyclic compound treatment) were almost completely killed by phototoxic ROS induced by ALA and light irradiation. Cell viability (cell metabolic activity) of light irradiated cells (without conjugated fused polycyclic) was only […] of normal cell control (no treatment). […] About 50% of Formula II(a)(1) treated cells survived, while cells without conjugated fused polycyclic compound exposure and cells treated with II(bk) were almost 100% dead. […] The Formula II(a)(1) was also observed to protect cells from light irradiation induced injury (relative cell viability 61%). […]

[4] = system: visible light-induced free radicals in pig skin; experiment: Visible light-induced free radicals in ALA-treated pig skin by Electron Spin Resonance; conditions: for Free Radicals (%): relative to 0 mM; for Free Radicals (a.u.): topical, ALA-treated pig skin
Procedure: A conjugated fused tricycle compound according to Formula II(a)(1) reduced visible light-induced free radicals in skin by up to 89% and did so in a dose-dependent manner (FIG. 21). The study was conducted using pig skin, which is recognized for its similarity to human skin. Topical application of aminolevulinic acid (ALA) induced the skin to over-produce the endogenous photosensitizer Protoporphyrin IX (PPIX). Solutions of Formula II(a)(1) at different concentrations were then topically applied to the ALA treated skin after which it was exposed to bright green light. The resulting free radical content of the skin was then measured by Electron Spin Resonance (ESR). Studies conducted in solution have shown that Formula II(a)(1) suppresses singlet oxygen production by PPIX. […] The mechanisms of action of Formula II(a)(1) and Tocopherol are different: the former prevents free radicals from forming; the latter scavenges free radicals after they appear.

HaCat cells [5] = experiment: Dark toxicity analysis in HaCat cells (no irradiation); assay type: cell-based, human; conditions: 1 mM with ALA, no red light irradiation
Procedure: To make sure that ALA and conjugated fused polycyclics treatments themselves are not influencing cell viability, (or cause cellular toxicity), dark toxicity analysis was performed. The experiment procedures were exactly same as above for cell viability analysis except that the red light irradiation step was omitted.

[6] = Singlet oxygen generation by stabilizers upon direct UV photolysis at 355 nm; assay type: physicochemical; conditions: air saturated CCl4, benzophenone as reference
Procedure: To investigate to what extent the stabilizers can generate singlet oxygen upon direct UV photolysis, singlet oxygen phosphorescence measurements were performed under photolysis at 355 nm. For these experiments CCl4 was selected as solvent, because of the long lifetime of singlet oxygen in this solvent, which makes these experiments easier to perform. Weak singlet oxygen signals were observed upon photolysis at 355 nm (FIG. 12). Using benzophenone as reference (quantum yield of singlet oxygen generation: 0.35) the low quantum yields of singlet oxygen generation were estimated: compound of Formula I(a)(1): 0.015 and alkoxy crylene: ˜0.001.
To ensure that the observed weak singlet oxygen signals truly originated from the two compounds and not from possible impurities in the sample or solvent, singlet oxygen phosphorescence excitation spectra were recorded.

[7] = UV and visible light absorption spectra of stabilizers; assay type: physicochemical; conditions: acetonitrile
Procedure: UV and visible light absorption spectra were recorded to investigate to what extent each stabilizer itself absorbs UV light. […] Protoporphyrin IX has weak absorption bands above 450 nm, where the two compounds are transparent (FIG. 2). The compound with the oxygen bridge (Formula II(d)(1)) caused a bathocromic shift of the UV absorption of the lowest energy band. The compound with the sulfur bridge (Formula II(e)(1)) shifted the lowest energy band further into the visible region.

| SMILES | solubility in PBS buffer and cell culture medium (in words) [1] | stability of solution ([1]; 0.05 mM in PBS buffer) | precipitation ([1]; one hour after adding to PBS buffer or cell culture medium) | suppression of singlet oxygen generation [2] | relative cell viability (HaCat cells [3]; 8 mM ALA, 3 minutes irradiation, 24 hours culture, vs normal cell control) [%] | treated cells that survived (HaCat cells [3]; after irradiation) | Free Radicals (%) ([4]; 1.25 mM) | Free Radicals (a.u.) ([4]; 1.25 mM) | Free Radicals (%) ([4]; 2.5 mM) | Free Radicals (a.u.) ([4]; 2.5 mM) | Free Radicals (%) ([4]; 5 mM) | Free Radicals (a.u.) ([4]; 5 mM) | Free Radicals (%) ([4]; 10 mM) | Free Radicals (a.u.) ([4]; 10 mM) | reduction of visible light-induced free radicals in skin ([4]; dose-dependent, maximum) | free radical reduction compared with Tocopherol ([4]; same conditions) | dark toxicity (HaCat cells [5]) | quantum yield of singlet oxygen generation [6] | λmax [7] [nm] | extinction coefficient (molar absorptivity) ([7]; at λmax) |
| --- | --- | --- | --- | --- | --- | --- | --- | --- | --- | --- | --- | --- | --- | --- | --- | --- | --- | --- | --- | --- |
| COC(=O)C(C#N)=C1c2ccccc2C(=O)c2ccccc21 [Formula II(a)(1)] | especially difficult to dissolve | not observed to be stable for long | almost all Formula II(a)(1) precipitatde | largest suppression | 61 | About 50% | 92 | 2311 ± 331 | 46 | 1162 ± 225 | 11 | 270 ± 88 | 19 | 475 ± 212 | up to 89% | superior to Tocopherol | a little toxicity | – | – | – |
| COC(=O)C(C#N)=C1c2ccccc2-c2ccccc21 [Formula I(a)(1)] | – | – | – | – | – | – | – | – | – | – | – | – | – | – | – | – | – | 0.015 | 334 | 16,200 M −1 cm −1 |

From patent US9611246B2, “Compositions, apparatus, systems, and methods for resolving electronic excited states” (HALLSTAR INNOVATIONS CORP., priority 2012, dated 2017)
